The nature of this assay: Peroxy radical scavenging activity (BODIPY 581/591 C11 fluorescence, AMVN radical generator, microplate); synergy by CalcuSyn median-effect method. It is filed as biochemical. The note with it: test material alone, 50 percent inhibition of peroxy radical formation, parenthetic values 95% confidence intervals. The method, then:
As a peroxy radical generator, 2,2′-azobis-2,4-dimethyl valeronitrile (AMVN) was used and obtained from WAKO Chemicals (Richmond, Va.). All standards were of the highest purity commercially available. Additionally, the solvents were of HPLC grade.
Fluorescence measurements were performed using a Packard FluoroCount microplate fluorometer equipped with a temperature-controlled plate holder. All measurements were preformed in a 96-well polypropylene plate with stirring.
Reactions in octane:butyronitrile (9:1, v/v) were carried out at 30° C. All fluorescence measurements were recorded every 15 minutes for 1 hour at excitation wavelengths of 570 nm, with emission at 620 nm. The net protection (area under the curve, AUC) provided by an antioxidant sample was calculated using the trapezoid method. […] The percent inhibition of each dose was calculated as:
[AUC(dose)−AUC(AMVN)]/[AUC(BODIPY)−AUC(AMVN)]×100.
Stock solutions of the test samples were made up in chloroform and 6 μL were added to the reaction mixture to achieve the stated concentrations. The reaction was initiated by the addition of the AMVN and fluorometric readings were recorded every 15 minutes for one hour.
Synergy between astaxanthin and the sample of mixed tocotrienols was assessed using CalcuSyn (BIOSOFT, biosoft.com).
Cm is determined from the x-intercept of the median-effect plot. The fraction affected by the concentration of the test material is fa and the fraction unaffected by the concentration is fu (fu=1−fa). The exponent m is the parameter signifying the sigmoidicity or shape of the dose-effect curve. It is estimated by the slope of the median-effect plot.
The median-effect plot is a plot of x=log(C) vs y=log(fa/fu) and is based on the logarithmic form of Chou's median-effect equation. The goodness of fit for the data to the median-effect equation is represented by the linear correlation coefficient r of the median-effect plot. Usually, the experimental data from enzyme or receptor systems have an r>0.96, from tissue culture an r>0.90 and from animal systems an r>0.85.
Synergy of test components is quantified using the combination index (CI) parameter. […] The equation determines only the additive effect rather than synergism or antagonism.
Dose-response curves were described with each test article separately and then in a two-way combination.

Values joined by “and” are separate entries in the source; they are usually repeats but may differ in a detail not shown here. Equal entries are not always repeated.

Turning to `CC1=C(/C=C/C(C)=C/C=C/C(C)=C/C=C/C=C(C)/C=C/C=C(C)/C=C/C2=C(C)C(=O)[C@@H](O)CC2(C)C)C(C)(C)C[C@H](O)C1=O` [Astaxanthin, 3,3′-dihydroxy-β,β-carotene-4,4′-dieto-β-carotene], the IC50 is 150 (115-194) μg/mL and 182 (145-227) μg/mL. The IC50 (listed as astaxanthin) was 196 µg/mL and 195 µg/mL. Regarding `CC1=C[C@H](O)CC(C)(C)[C@H]1/C=C/C(C)=C/C=C/C(C)=C/C=C/C=C(C)/C=C/C=C(C)/C=C/C1=C(C)C[C@@H](O)CC1(C)C` [Lutein, lutein], the IC50 was 38 (29-50) μg/mL. Still for that read-out and setting: under `CC1=C(/C=C/C(C)=C/C=C/C(C)=C/C=C/C=C(C)/C=C/C=C(C)/C=C/C2=C(C)CCCC2(C)C)C(C)(C)CCC1` [β-Carotene, β-carotene] stands 196 (171-226) μg/mL and 135 (85-215) μg/mL.

The record behind these values is patent publication US20030206972A1, “Compositions containing carotenoids and tocotrienols and having synergistic antioxidant effect” (priority 2000, published 2003).
